Measured values: ChEMBL document CHEMBL1201862, “PubChem BioAssay data set” (2004)
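Protocol summary: plate cells (96-well), add compound at 5 concentrations, incubate 48 h, interpolate endpoints linearly. The concentration for 50% growth inhibition is given as GI50.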 Calls of active or inactive are those of the source. Cut-off read from the data, not from the text of the source: active = GI50 up to about 1.1 µM and inactive = higher.

Key:
Assay in all cases: NCI anticancer screen, dose series, 48 h
[1] = tested on: IGROV-1
[2] = tested on: HCT-116
[3] = tested on: OVCAR-8
[4] = tested on: CCRF-CEM
[5] = tested on: EKVX
[6] = tested on: SN12C
[7] = tested on: MDA-N
[8] = tested on: OVCAR-3
[9] = tested on: MDA-MB-435
[10] = tested on: SW-620
[11] = tested on: SF-295
[12] = tested on: OVCAR-4
[13] = tested on: BT-549
[14] = tested on: OVCAR-5
[15] = tested on: UACC-257
[16] = tested on: HT-29
[17] = tested on: SR
[18] = tested on: TK-10
[19] = tested on: RPMI-8226
[20] = tested on: U-251

Structure (SMILES)	GI50 [1]	GI50 [2]	GI50 [3]	GI50 [4]	GI50 [5]	GI50 [6]	GI50 [7]	GI50 [8]	GI50 [9]	GI50 [10]	GI50 [11]	GI50 [12]	GI50 [13]	GI50 [14]	GI50 [15]	GI50 [16]	GI50 [17]	GI50 [18]	GI50 [19]	GI50 [20]
CCN(CC)C(=S)SC1CCOP(=O)(N(CCCl)CCCl)N1C (stereo not given)	4.34 µM (inactive)	0.412 µM (active)	29.9 µM (inactive)	0.109 µM (active)	57.1 µM (inactive)	28.9 µM (inactive)	> 100 µM (inactive)	> 100 µM (inactive)	> 100 µM (inactive)	1.71 µM (inactive)	55.6 µM (inactive)	29.9 µM (inactive)	> 100 µM (inactive)	12.1 µM (inactive)	> 40.9 µM (inactive)	1.99 µM (inactive)	0.185 µM (active)	> 71.1 µM (inactive)	1.34 µM (inactive)	–
C#CCn1c(=O)c(C)cn(/C(=C/C(=O)OCC)C(=O)OCC)c1=O	3.75 µM (inactive)	4.67 µM (inactive)	2.49 µM (inactive)	1.04 µM (active)	5.87 µM (inactive)	8.57 µM (inactive)	15 µM (inactive)	7.16 µM (inactive)	6.35 µM (inactive)	1.67 µM (inactive)	18.5 µM (inactive)	6.28 µM (inactive)	8.11 µM (inactive)	3.64 µM (inactive)	14.4 µM (inactive)	2.23 µM (inactive)	3.5 µM (inactive)	2.01 µM (inactive)	3.98 µM (inactive)	9.98 µM (inactive)
Nc1ccc2c(SCc3ccc([N+](=O)[O-])cc3)c3ccccc3nc2c1	19.5 µM (inactive)	7.53 µM (inactive)	13.2 µM (inactive)	1.35 µM (inactive)	24.8 µM (inactive)	18.6 µM (inactive)	12.8 µM (inactive)	15.8 µM (inactive)	14.5 µM (inactive)	2.87 µM (inactive)	18.2 µM (inactive)	14.1 µM (inactive)	17.9 µM (inactive)	18.3 µM (inactive)	16.4 µM (inactive)	17.5 µM (inactive)	1.42 µM (inactive)	11.9 µM (inactive)	2.7 µM (inactive)	18.2 µM (inactive)
COc1ccc(N2C(=O)CC(c3c[nH]c4ccccc34)C2=O)cc1 (stereo not given)	> 100 µM (inactive)	> 100 µM (inactive)	> 100 µM (inactive)	> 100 µM (inactive)	> 100 µM (inactive)	> 100 µM (inactive)	> 100 µM (inactive)	> 100 µM (inactive)	> 100 µM (inactive)	> 100 µM (inactive)	> 100 µM (inactive)	–	> 100 µM (inactive)	> 100 µM (inactive)	> 100 µM (inactive)	> 100 µM (inactive)	> 100 µM (inactive)	> 100 µM (inactive)	> 100 µM (inactive)	> 100 µM (inactive)
CCN(CC)CCOC(=O)CCN1CC2CCC(CC2)C1	> 100 µM (inactive)	> 100 µM (inactive)	> 100 µM (inactive)	> 100 µM (inactive)	> 100 µM (inactive)	–	> 100 µM (inactive)	> 100 µM (inactive)	> 100 µM (inactive)	> 100 µM (inactive)	> 100 µM (inactive)	> 100 µM (inactive)	> 100 µM (inactive)	> 100 µM (inactive)	> 100 µM (inactive)	> 100 µM (inactive)	> 100 µM (inactive)	> 100 µM (inactive)	> 100 µM (inactive)	> 100 µM (inactive)
CCOC(=O)/C=C/[C@H](O[Si](c1ccccc1)(c1ccccc1)c1ccccc1)C(C)(C)C	> 31.6 µM (inactive)	22.5 µM (inactive)	> 31.6 µM (inactive)	15.8 µM (inactive)	> 31.6 µM (inactive)	> 31.6 µM (inactive)	> 31.6 µM (inactive)	> 31.6 µM (inactive)	> 31.6 µM (inactive)	> 31.6 µM (inactive)	> 31.6 µM (inactive)	> 31.6 µM (inactive)	> 10 µM (inactive)	> 10 µM (inactive)	11.1 µM (inactive)	7.03 µM (inactive)	> 10 µM (inactive)	> 31.6 µM (inactive)	3.44 µM (inactive)	> 31.6 µM (inactive)
CCN(CC)CC(O)c1ccc2ccc3ccccc3c2c1 (stereo not given)	16.2 µM (inactive)	15.3 µM (inactive)	16.7 µM (inactive)	23.7 µM (inactive)	14.1 µM (inactive)	16.3 µM (inactive)	15.6 µM (inactive)	15.7 µM (inactive)	16.3 µM (inactive)	18.5 µM (inactive)	15.2 µM (inactive)	17.4 µM (inactive)	15.8 µM (inactive)	13.6 µM (inactive)	16.4 µM (inactive)	11.5 µM (inactive)	5.69 µM (inactive)	15.8 µM (inactive)	18.9 µM (inactive)	13.3 µM (inactive)
CC(=O)c1nc2ccccc2n1C(C)C(=O)c1ccccc1 (stereo not given)	30.2 µM (inactive)	50.4 µM (inactive)	23.1 µM (inactive)	39.6 µM (inactive)	> 100 µM (inactive)	56.6 µM (inactive)	54.1 µM (inactive)	41.8 µM (inactive)	52.7 µM (inactive)	43.7 µM (inactive)	54.6 µM (inactive)	47.4 µM (inactive)	52 µM (inactive)	–	54.6 µM (inactive)	> 100 µM (inactive)	36.3 µM (inactive)	91.8 µM (inactive)	51.6 µM (inactive)	57.3 µM (inactive)
N=C(N)NS(=O)(=O)c1ccc(Nc2c3ccccc3nc3c(C(=O)NC(CO)(CO)CO)cccc23)cc1	37.6 µM (inactive)	–	29 µM (inactive)	4.63 µM (inactive)	> 100 µM (inactive)	26.5 µM (inactive)	35.6 µM (inactive)	27.5 µM (inactive)	24.9 µM (inactive)	17.6 µM (inactive)	16.6 µM (inactive)	> 10 µM (inactive)	13.4 µM (inactive)	11.9 µM (inactive)	> 100 µM (inactive)	21.3 µM (inactive)	12.5 µM (inactive)	47.3 µM (inactive)	20.1 µM (inactive)	12.2 µM (inactive)
COc1cc2c(cc1OCCCN1C(=O)c3cccc4cccc(c34)C1=O)N=C[C@@H]1CCCN1C2=O	12.2 µM (inactive)	36.1 µM (inactive)	36.6 µM (inactive)	5.65 µM (inactive)	> 100 µM (inactive)	48.5 µM (inactive)	37.2 µM (inactive)	32.8 µM (inactive)	40.1 µM (inactive)	22.6 µM (inactive)	> 95.1 µM (inactive)	31.7 µM (inactive)	36.6 µM (inactive)	> 89.1 µM (inactive)	40.1 µM (inactive)	31.3 µM (inactive)	1.26 µM (inactive)	30.3 µM (inactive)	18.2 µM (inactive)	39.5 µM (inactive)
